Values quoted from earlier work, collected in patent US20050101548A1, “Antimicrobial derivatives” (priority 2003, published 2005).

Assays:
[1] = tested on: macrolide-sensitive and resistant bacteria
[2] = tested on: S. pneumoniae
[3] = tested on: Gram-negative bacteria

Structure (SMILES): C=C1CO[C@@H]2[C@@H](C)/C(=N/C(C)=O)[C@H](C)C[C@@](C)(OC1)[C@H](O[C@@H]1O[C@H](C)C[C@H](N(C)C)[C@H]1O)[C@@H](C)C(=O)[C@@H](C)C(=O)O[C@H](CC)[C@@]2(C)O [EP-1304]
- activity against some macrolide-sensitive and resistant bacteria in vivo [1]: exhibits activity

Structure (SMILES): CC[C@H]1OC(=O)[C@H](C)C(=O)[C@H](C)[C@@H](O[C@@H]2O[C@H](C)C[C@H](N(C)C)[C@H]2O)[C@@]2(C)C[C@@H](C)/C(=N\C(C)=O)[C@H](C)[C@@H](OCC(=NOCc3ccccc3)CO2)[C@]1(C)O [EP-1562]
- antibacterial activity against S. pneumoniae [2]: possess antibacterial activity

Structure (SMILES): CC[C@H]1OC(=O)[C@H](C)C(=O)[C@H](C)[C@@H](O[C@@H]2O[C@H](C)C[C@H](N(C)C)[C@H]2O)[C@@]2(C)C[C@@H](C)/C(=N\C(C)=O)[C@H](C)[C@@H](OCC(=NOCc3ccc(-c4cccnc4)s3)CO2)[C@]1(C)O [EP-12728]
- antibacterial activity against S. pneumoniae [2]: possess antibacterial activity

Structure (SMILES): CC[C@H]1OC(=O)[C@H](C)[C@@H](O[C@H]2C[C@@](C)(OC)[C@@H](O)[C@H](C)O2)[C@H](C)[C@@H](O[C@@H]2O[C@H](C)C[C@H](N(C)C)[C@H]2O)[C@](C)(O)C[C@@H](C)C(=O)[C@H](C)[C@@H](O)[C@]1(C)O [erythromycin A]
- activity against Gram-negative bacteria [3]: only weak activity
